Laboratory results taken from US20210275547A1, “Methods of Modulating Activity of a Cyclic Dinucleotide (CDN) with a CDN Transporter-Modulating Agent” (THE REGENTS OF THE UNIVERSITY OF CALIFORNIA, priority 2018, published 2021).
“Also recorded” adds a separate entry of the source.

Legend:
[1] = system: THP-1 cells expressing an ISRE-driven tdTomato reporter; test: Synthetic CDN or hIFNβ stimulation of tdTomato reporter THP-1 cells in the presence of sulfasalazine; assay type: cell-based, human
Text: To identify genes encoding molecules involved in this process, a reporter system was created to detect STING activation in response to extracellular CDNs, in order to perform a genetic screen. The reporter was composed of an Interferon Stimulatory Response Element (ISRE) cassette driving the expression of the fluorescent protein tdTomato. […] Subsequently, THP-1 cells containing the reporter were transduced with a genome-wide library of guide RNAs (gRNAs), which suppress expression of target genes. The library targeted 20,000 genes within the human genome. The gRNA library-expressing THP-1 cells were stimulated with synthetic CDN, and the cells were subsequently sorted into two populations based on either low (hyporesponsive) or high (hyper-responsive) levels of tdTomato reporter expression. These populations were sequenced to reveal the RNA targets. As expected, gRNAs targeting components of the STING pathway, including IRF3 and STING itself, were enriched in the hyporesponsive cells and depleted in the hyper-responsive cells, corroborating the success of the screening procedure. Other “hits” in the screen were examined for their role in CDN transport.
The transport activity of folate by SLC19A1 can be altered by a variety of organic and inorganic anions, including the compound sulfasalazine (Jansen et al. “Sulfasalazine is a potent inhibitor of the reduced folate carrier: Implications for combination therapies with methotrexate in rheumatoid arthritis.” Arthritis Rheum. 50, 2130-2139 (2004); Goldman, “The characteristics of the membrane transport of amethopterin and the naturally occurring folates.” Ann. N. Y. Acad. Sci. 186, 400-22 (1971)). […] We therefore tested whether sulfasalazine blocks the response of cells to CDNs.
FIG. 2. Panel A) THP-1 cells were stimulated with synthetic CDN (2.5 μg/ml) in the presence of high concentrations of sulfasalazine (SSZ) or vehicle. Reporter expression was measured 20 h post stimulation. […] Reporter expression was measured 20 h post stimulation.

SLC19A1 [2] = molecular target: T1, SLC19A1 (Homo sapiens, UniProt P41440); conditions: at high doses; cited from earlier work
T1 sequence (P41440 1-591): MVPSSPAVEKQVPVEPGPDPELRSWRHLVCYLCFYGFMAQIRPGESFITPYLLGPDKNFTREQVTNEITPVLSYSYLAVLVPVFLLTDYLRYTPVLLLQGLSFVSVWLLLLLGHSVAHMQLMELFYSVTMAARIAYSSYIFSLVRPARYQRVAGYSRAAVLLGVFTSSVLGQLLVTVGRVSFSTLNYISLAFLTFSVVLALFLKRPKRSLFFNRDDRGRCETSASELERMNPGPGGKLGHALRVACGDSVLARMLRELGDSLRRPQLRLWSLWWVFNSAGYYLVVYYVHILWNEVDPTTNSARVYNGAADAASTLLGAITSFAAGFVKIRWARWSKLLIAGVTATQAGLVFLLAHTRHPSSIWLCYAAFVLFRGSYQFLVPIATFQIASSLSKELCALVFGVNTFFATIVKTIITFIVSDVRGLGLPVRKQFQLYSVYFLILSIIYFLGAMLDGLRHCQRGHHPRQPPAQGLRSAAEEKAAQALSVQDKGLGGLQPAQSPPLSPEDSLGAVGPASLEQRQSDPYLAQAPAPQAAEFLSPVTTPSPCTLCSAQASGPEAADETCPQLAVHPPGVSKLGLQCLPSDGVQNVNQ

SLC19A1 [3] = molecular target: T1, SLC19A1; test: Reporter response to CDNs in THP-1 cells with SLC19A1 knocked down or overexpressed; conditions: SLC19A1 knockdown vs control, synthetic CDN 1.7 μg/ml, hIFNβ 100 ng/ml, 20 h
Procedure: To test the role of SLC19A1 in the response to extracellular CDNs, THP-1 cell lines were created in which SLC19A1 was knocked-down or knocked-out, using conventional methods. SLC19A1 knockdown was confirmed and cells were stimulated with synthetic CDN or hIFNβ.
Panel A) Flow cytometry-generated dot plots of THP-1 cells expressing an ISRE-driven tdTomato reporter. Reporter expression was induced upon stimulation with the synthetic CDN (1.7 μg/ml) for 20 h. Panel B) Validation of targets identified by a genome-wide screen using THP-1 cells described in (Panel A) using conventional methods. Cells expressed a control vector or IRF3 or SLC19A1 gRNA. Cells were stimulated with (Panel B) synthetic CDN (1.7 μg/ml) or (Panel D) human interferon-beta (hIFNβ) (100 ng/ml) for 20 h. Cells were analyzed for reporter by flow cytometry as in (A). E) Indicated cell lines expressing SLC19A1 or vector only were stimulated with synthetic CDN (1.7 μg/ml). Reporter expression was measured 20 h after stimulation.

SMILES | response of the cells to hIFNβ ([1]; either low or high sulfasalazine concentrations) | response to synthetic CDN stimulation (reporter expression) ([1]; high concentration (1000 μM) of sulfasalazine, synthetic CDN 2.5 μg/ml, 20 h post stimulation) | responsiveness of cells to synthetic CDN compared to untreated cells (reporter expression) ([1]; low concentrations of sulfasalazine (e.g. 100 μM), synthetic CDN 1.25 μg/ml, 20 h post stimulation) | transport of folates and folate-derivatives by SLC19A1 (SLC19A1 [2]) | effect of knocking down SLC19A1 expression on the response to the stimulant (SLC19A1 [3])
O=C(O)c1cc(/N=N/c2ccc(S(=O)(=O)Nc3ccccn3)cc2)ccc1O [sulfasalazine] | only marginally affected | complete blocking; also recorded: almost completely blocked | significantly increased | non-competitively inhibits | –
Nc1ncnc2c1ncn2[C@@H]1O[C@@H]2COP(=O)(O)O[C@H]3[C@@H](O)[C@H](n4cnc5c(N)ncnc54)O[C@@H]3COP(=O)(O)O[C@H]2[C@H]1O [CDA, cyclic di-AMP] | – | – | – | – | reduced the response
